Test results taken from US10040781B2, “Tank-binding kinase inhibitor compounds” (Gilead Sciences, Inc., priority 2014, dated 2018).
Where two headings read alike, the source gives them in different places.

How the values were obtained:
IKKε = IKKε (Homo sapiens (Human), UniProt Q14164); assay: IKKε TR-FRET enzymatic assay; type: biochemical; conditions: read-out: IKKe IC50
TBK1 = TBK1 (Homo sapiens (Human), UniProt Q9UHD2); assay: TBK1 TR-FRET enzymatic assay;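 further: phosphorylation of a biotinylated Ser/Thr peptide by purified full-length recombinant TBK1, read by TR-FRET after 240 min at 25 °C, IC50 is the geometric mean of at least four runs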
Chain of TBK1 (Q9UHD2 whole entry): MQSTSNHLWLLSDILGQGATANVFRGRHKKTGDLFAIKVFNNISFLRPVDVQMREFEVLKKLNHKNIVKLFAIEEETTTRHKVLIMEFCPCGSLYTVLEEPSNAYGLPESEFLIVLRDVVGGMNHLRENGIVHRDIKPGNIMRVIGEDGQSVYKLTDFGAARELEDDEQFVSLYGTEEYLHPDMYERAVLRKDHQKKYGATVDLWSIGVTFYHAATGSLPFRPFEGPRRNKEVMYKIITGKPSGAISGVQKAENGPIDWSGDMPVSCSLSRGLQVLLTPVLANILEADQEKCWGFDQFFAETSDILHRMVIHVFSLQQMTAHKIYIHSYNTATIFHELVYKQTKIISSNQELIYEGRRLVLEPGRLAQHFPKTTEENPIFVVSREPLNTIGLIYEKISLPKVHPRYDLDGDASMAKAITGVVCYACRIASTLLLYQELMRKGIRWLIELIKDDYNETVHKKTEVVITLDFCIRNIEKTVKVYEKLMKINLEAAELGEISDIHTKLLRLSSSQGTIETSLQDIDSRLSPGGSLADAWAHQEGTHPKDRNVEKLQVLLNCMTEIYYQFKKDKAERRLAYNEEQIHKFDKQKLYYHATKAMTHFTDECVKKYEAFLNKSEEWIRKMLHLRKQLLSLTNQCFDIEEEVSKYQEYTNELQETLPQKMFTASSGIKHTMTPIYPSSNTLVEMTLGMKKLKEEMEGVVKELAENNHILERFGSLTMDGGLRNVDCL

[1] = TR-FRET, 2×Km ATP, geometric mean of minimum four determinations

Chain of IKKε (Q14164 whole entry): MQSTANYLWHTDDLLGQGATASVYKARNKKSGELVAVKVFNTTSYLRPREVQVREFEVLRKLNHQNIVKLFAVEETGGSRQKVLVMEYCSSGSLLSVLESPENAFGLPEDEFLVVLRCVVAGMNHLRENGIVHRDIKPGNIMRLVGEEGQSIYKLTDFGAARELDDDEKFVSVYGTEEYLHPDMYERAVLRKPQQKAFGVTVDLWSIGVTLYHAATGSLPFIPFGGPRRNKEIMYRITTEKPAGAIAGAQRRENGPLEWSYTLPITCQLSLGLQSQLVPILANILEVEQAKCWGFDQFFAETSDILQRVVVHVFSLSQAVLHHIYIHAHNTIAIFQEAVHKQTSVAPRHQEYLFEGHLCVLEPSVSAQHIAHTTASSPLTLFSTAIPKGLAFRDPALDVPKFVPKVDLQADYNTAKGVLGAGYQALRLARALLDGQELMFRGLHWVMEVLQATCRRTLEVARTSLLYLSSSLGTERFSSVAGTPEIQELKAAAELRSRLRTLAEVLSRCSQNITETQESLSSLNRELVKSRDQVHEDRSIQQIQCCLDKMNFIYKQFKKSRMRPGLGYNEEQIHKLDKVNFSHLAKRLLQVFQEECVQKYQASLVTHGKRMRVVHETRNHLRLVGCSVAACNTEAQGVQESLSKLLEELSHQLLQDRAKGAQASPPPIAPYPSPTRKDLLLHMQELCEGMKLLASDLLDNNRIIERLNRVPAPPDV

Row | IC50 (IKKε) [nM] | IC50 (TBK1) [nM] | IC50 (IKKε; [1]) [nM] | SMILES
1 | 5 | 1 | – | N#Cc1cc(-c2ncnc(Nc3ccc(N4CCN(C(=O)CO)CC4)cc3)n2)ccc1OC1CCOCC1 [Example 64, 5-(4-((4-(4-(2-hydroxyacetyl)piperazin-1-yl)phenyl)amino)-1,3,5-triazin-2-yl)-2-((tetrahydro-2H-pyran-4-yl)oxy)benzonitrile]
2 | 2 | 3 | – | N#CCC(=O)N1CC[C@H](Oc2ccc(-c3ncnc(Nc4ccc(N5CCN(C6COC6)CC5)cc4)n3)cc2C#N)C(F)(F)C1 [Example 160, (S)-2-((1-(2-cyanoacetyl)-3,3-difluoropiperidin-4-yl)oxy)-5-(4-((4-(4-(oxetan-3-yl)piperazin-1-yl)phenyl)amino)-1,3,5-triazin-2-yl)benzonitrile]
3 | 1 | 2 | – | N#Cc1cc(-c2ncnc(Nc3ccc(N4CCN(C5COC5)CC4)cc3)n2)ccc1O[C@H]1CCN(C(=O)c2cnn[nH]2)CC1(F)F [Example 165, (S)-2-((3,3-difluoro-1-(1H-1,2,3-triazole-5-carbonyl)piperidin-4-yl)oxy)-5-(4-((4-(4-(oxetan-3-yl)piperazin-1-yl)phenyl)amino)-1,3,5-triazin-2-yl)benzonitrile]
4 | 19 | 5 | – | N#Cc1cc(-c2ncnc(Nc3ccc(N4CCN(C5COC5)CC4)cc3)n2)ccc1OC1CCN(C(=O)c2ncc[nH]2)CC1 [Example 189, 2-((1-(1H-imidazole-2-carbonyl)piperidin-4-yl)oxy)-5-(4-((4-(4-(oxetan-3-yl)piperazin-1-yl)phenyl)amino)-1,3,5-triazin-2-yl)benzonitrile]
5 | 213 | 49 | – | CN1CC2(CCN(c3ccc(-c4ncnc(Nc5ccc(N6CCN(C7COC7)CC6)cc5)n4)cc3C#N)CC2)C1 [Example 209, 2-(2-methyl-2,7-diazaspiro[3.5]nonan-7-yl)-5-(4-((4-(4-(oxetan-3-yl)piperazin-1-yl)phenyl)amino)-1,3,5-triazin-2-yl)benzonitrile]
6 | 42 | 13 | – | N#Cc1cc(-c2ncnc(Nc3ccc(N4CCN(C5COC5)CC4)cc3)n2)ccc1O[C@H]1CCOC1 [Example 216, (S)-5-(4-((4-(4-(oxetan-3-yl)piperazin-1-yl)phenyl)amino)-1,3,5-triazin-2-yl)-2-((tetrahydrofuran-3-yl)oxy)benzonitrile]
7 | 1 | 3 | – | C[C@H]1CN(C2COC2)CCN1c1ccc(Nc2ncnc(-c3ccc(O[C@H]4CCN(C(=O)c5cnn[nH]5)CC4(F)F)c(C#N)c3)n2)cc1 [Example 258, 2-(((S)-3,3-difluoro-1-(1H-1,2,3-triazole-5-carbonyl)piperidin-4-yl)oxy)-5-(4-((4-((S)-2-methyl-4-(oxetan-3-yl)piperazin-1-yl)phenyl)amino)-1,3,5-triazin-2-yl)benzonitrile]
8 | 38 | 23 | – | CS(=O)(=O)OC1CN(c2ccc(-c3ncnc(Nc4ccc(N5CCN(C6COC6)CC5)cc4)n3)cc2C#N)C1 [Example 276, 1-(2-cyano-4-(4-((4-(4-(oxetan-3-yl)piperazin-1-yl)phenyl)amino)-1,3,5-triazin-2-yl)phenyl)azetidin-3-yl methanesulfonate]
9 | ≥ 1000 | 475 | – | Cc1nnsc1COc1ccc(-c2ncnc(Nc3ccc(N4CCN(C5COC5)CC4)cc3)n2)cc1C#N [Example 284, 2-((4-methyl-1,2,3-thiadiazol-5-yl)methoxy)-5-(4-((4-(4-(oxetan-3-yl)piperazin-1-yl)phenyl)amino)-1,3,5-triazin-2-yl)benzonitrile]
10 | 32 | 13 | – | COC(=O)N1CC[C@H](Oc2ccc(-c3ncnc(Nc4ccc(N5CCN(C6COC6)CC5)cc4)n3)cc2C#N)[C@H](F)C1 [Example 290, (3R,4S)-methyl 4-(2-cyano-4-(4-((4-(4-(oxetan-3-yl)piperazin-1-yl)phenyl)amino)-1,3,5-triazin-2-yl)phenoxy)-3-fluoropiperidine-1-carboxylate]
11 | 1 | 2 | – | N#Cc1cc(-c2ncnc(Nc3ccc(N4CCN(C5COC5)CC4)cc3)n2)ccc1O[C@H]1CCN(C(=O)c2cnc(N)cn2)C[C@H]1F [Example 341, 2-(((3R,4S)-1-(5-aminopyrazine-2-carbonyl)-3-fluoropiperidin-4-yl)oxy)-5-(4-((4-(4-(oxetan-3-yl)piperazin-1-yl)phenyl)amino)-1,3,5-triazin-2-yl)benzonitrile]
12 | 12 | 10 | – | Cc1nc(C)c(C(=O)N2CC[C@H](Oc3ccc(-c4ncnc(Nc5ccc(N6CCN(C7COC7)CC6)cc5)n4)cc3C#N)[C@H](F)C2)[nH]1 [Example 345, 2-(((3R,4S)-1-(2,4-dimethyl-1H-imidazole-5-carbonyl)-3-fluoropiperidin-4-yl)oxy)-5-(4-((4-(4-(oxetan-3-yl)piperazin-1-yl)phenyl)amino)-1,3,5-triazin-2-yl)benzonitrile]
13 | 2 | 4 | – | C[C@H](O)C(=O)N1CC[C@H](Oc2ccc(-c3ncnc(Nc4ccc(N5CCC(C)(O)CC5)cc4)n3)cc2C#N)[C@H](F)C1 [Example 355, 2-(((3R,4S)-3-fluoro-1-((S)-2-hydroxypropanoyl)piperidin-4-yl)oxy)-5-(4-((4-(4-hydroxy-4-methylpiperidin-1-yl)phenyl)amino)-1,3,5-triazin-2-yl)benzonitrile]
14 | 129 | 37 | – | N#Cc1cc(-c2ncnc(Nc3ccc(N4CCN(C5COC5)CC4)cc3)n2)ccc1O[C@H]1CCN(C(=O)Cn2cnnc2)C[C@H]1F [Example 377, 2-(((3R,4S)-1-(2-(4H-1,2,4-triazol-4-yl)acetyl)-3-fluoropiperidin-4-yl)oxy)-5-(4-((4-(4-(oxetan-3-yl)piperazin-1-yl)phenyl)amino)-1,3,5-triazin-2-yl)benzonitrile]
15 | 2 | 3 | – | C[C@H](O)C(=O)N1CC[C@H](Oc2ccc(-c3ncnc(Nc4ccc(N5CCOC[C@@H]5CO)cc4)n3)cc2C#N)[C@H](F)C1 [Example 387, 2-(((3R,4S)-3-fluoro-1-((S)-2-hydroxypropanoyl)piperidin-4-yl)oxy)-5-(4-((4-((S)-3-(hydroxymethyl)morpholino)phenyl)amino)-1,3,5-triazin-2-yl)benzonitrile]
16 | – | 2 | 1 | N#Cc1cc(-c2ncnc(Nc3ccc(N4CCN(C5COC5)CC4)c(F)c3)n2)ccc1O[C@H]1CCN(C(=O)[C@@H](O)CO)C[C@H]1F [Example 409, 2-(((3R,4S)-1-((S)-2,3-dihydroxypropanoyl)-3-fluoropiperidin-4-yl)oxy)-5-(4-((3-fluoro-4-(4-(oxetan-3-yl)piperazin-1-yl)phenyl)amino)-1,3,5-triazin-2-yl)benzonitrile]
17 | – | 533 | ≥ 1000 | C[C@H]1C[C@H](Oc2ccc(-c3ncnc(Nc4ccc(N5CCN(C6COC6)CC5)cc4)n3)cc2C#N)[C@H](F)CN1C(=O)[C@H]1CCC(=O)N1 [Example 411, 2-(((2S,4S,5R)-5-fluoro-2-methyl-1-((R)-5-oxopyrrolidine-2-carbonyl)piperidin-4-yl)oxy)-5-(4-((4-(4-(oxetan-3-yl)piperazin-1-yl)phenyl)amino)-1,3,5-triazin-2-yl)benzonitrile]
18 | – | 64 | 124 | C[C@H]1C[C@H](Oc2ccc(-c3ncnc(Nc4ccc(N5CCN(C6COC6)CC5)cc4)n3)cc2C#N)[C@H](F)CN1C(=O)[C@@H]1CCC(=O)N1 [Example 416, 2-(((2S,4S,5R)-5-fluoro-2-methyl-1-((S)-5-oxopyrrolidine-2-carbonyl)piperidin-4-yl)oxy)-5-(4-((4-(4-(oxetan-3-yl)piperazin-1-yl)phenyl)amino)-1,3,5-triazin-2-yl)benzonitrile]
19 | – | 4 | 2 | N#Cc1cc(-c2ncnc(Nc3ccc(N4CCN(C5COC5)CC4)cc3)n2)ccc1O[C@H]1CCN(C(=O)c2nc(=O)[nH][nH]2)C[C@H]1F [Example 437, 2-(((3R,4S)-3-fluoro-1-(5-oxo-2,5-dihydro-1H-1,2,4-triazole-3-carbonyl)piperidin-4-yl)oxy)-5-(4-((4-(4-(oxetan-3-yl)piperazin-1-yl)phenyl)amino)-1,3,5-triazin-2-yl)benzonitrile]
20 | – | 4 | 7 | N#Cc1cc(-c2ncnc(Nc3cnn(C(F)F)c3)n2)ccc1O[C@H]1CCN(C(=O)[C@@H](O)CO)C[C@H]1F [Example 456]
21 | – | 13 | 20 | C[C@H](O)C(=O)N1CC[C@H](Oc2ccc(-c3ncnc(Nc4cnn(C(F)F)c4)n3)cc2C#N)[C@H](F)C1 [Example 457, 5-(4-((1-(difluoromethyl)-1H-pyrazol-4-yl)amino)-1,3,5-triazin-2-yl)-2-(((3R,4S)-3-fluoro-1-((S)-2-hydroxypropanoyl)piperidin-4-yl)oxy)benzonitrile]
22 | – | 4 | 5 | N#Cc1cc(-c2ncnc(Nc3ccc(N4CCN5CCOC[C@H]5C4)cc3)n2)ccc1O[C@H]1CCN(C(=O)[C@@H]2CCC(=O)N2)C[C@H]1F [Example 466, 2-(((3R,4S)-3-fluoro-1-((S)-5-oxopyrrolidine-2-carbonyl)piperidin-4-yl)oxy)-5-(4-((4-((R)-hexahydropyrazino[2,1-c][1,4]oxazin-8(1H)-yl)phenyl)amino)-1,3,5-triazin-2-yl)benzonitrile]
23 | – | 3 | 2 | Cc1cc(Nc2ncnc(-c3ccc(O[C@@H]4CCC(=O)NC4)c(C#N)c3)n2)ccc1N1CCN(C2COC2)CC1 [Example 532, (R)-5-(4-((3-methyl-4-(4-(oxetan-3-yl)piperazin-1-yl)phenyl)amino)-1,3,5-triazin-2-yl)-2-((6-oxopiperidin-3-yl)oxy)benzonitrile]

Row | SMILES | IC50 (IKKε) [nM] | IC50 (TBK1) [nM] | IC50 (IKKε; [1]) [nM]
24 | N#Cc1cc(-c2ncnc(Nc3ccc(N4CCNCC4)c(F)c3)n2)ccc1O[C@H]1CCOC[C@H]1F [Example 298, 5-(4-((3-fluoro-4-(piperazin-1-yl)phenyl)amino)-1,3,5-triazin-2-yl)-2-(((3R,4S)-3-fluorotetrahydro-2H-pyran-4-yl)oxy)benzonitrile] | 1 | 4 | –
